The source made the active and inactive calls.
Experiments:
[1] = target: T1, Polyadenylate-binding protein 1 (Homo sapiens, UniProt P11940); experiment: MLLE binding blockers, Cy5 peptide tracer – biochemical, fluorescence polarization, Cy5-PAM2 peptide, secondary, miRNA deadenylation inhibitor project, dose response (AID 602260); type: functional; details: read-out: IC50_Mean
[2] = target: T1, Polyadenylate-binding protein 1; experiment: MLLE domain peptide-binding blockers, IC50 – biochemical, fluorescence polarization, FITC-PAM2 peptide, dose response (AID 602259); type: functional; details: read-out: IC50_Mean
[3] = Luminescence Cell-Based Dose Response HTS to Identify Inhibitors of 5'UTR Stem-Loop Driven Prion Protein mRNA Translation in H4 Neuroglioblastoma Cells. [Related pubchem assays: 1827 (Project Summary), 1813 (Primary HTS)]; type: functional
[4] = alpha-synuclein stem-loop luciferase translation blockers – H4 neuroglioma cells, luminescence, confirmation (AID 1988); type: functional, cell-based
[5] = tested on: Streptococcus sp. 'group A'; experiment: Streptococcus pyogenes SK(-)GAS viability under kanamycin – luminescence, BacTiterGlo, confirmation, counter-screen for streptokinase expression inhibitor project, dose response (AID 1900); type: functional, organism-based
Streptococcus = experiment: GAS UMAA2166 growth inhibition – luminescence, BacTiterGlo, counter-screen for streptokinase expression inhibitor project, dose response (AID 1915); type: functional, organism-based;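 note: potency for reduction of bacterial viability or growth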
Vero = experiment: cells; type: functional; details: Chlorocebus sabaeus
[6] = DRD fibroblast viability loss – cell-based, non-viral oncogenic, luminescence, dose response (AID 1934); type: functional; details: Homo sapiens
BJ [7] = experiment: BJ-TERT fibroblast viability loss – cell-based, RAS-independent, luminescence, dose response (AID 1933); type: functional; details: Homo sapiens
[8] = luciferase reporter signal suppression in cells – H4 neuroglioma cells, luminescence, dose response (AID 1990); type: functional, cell-based
Streptokinase A = target: T2, Streptokinase A (Streptococcus pyogenes serotype M1, UniProt P10520); experiment: viability-normalized secreted streptokinase activity reduction – plasminogen activation absorbance, OD405, dose response (AID 1914); type: functional, Streptococcus pyogenes M1 GAS;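 note: secreted streptokinase activity via plasminogen activation per viability signal from cell pellet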
T2 sequence (P10520 whole entry): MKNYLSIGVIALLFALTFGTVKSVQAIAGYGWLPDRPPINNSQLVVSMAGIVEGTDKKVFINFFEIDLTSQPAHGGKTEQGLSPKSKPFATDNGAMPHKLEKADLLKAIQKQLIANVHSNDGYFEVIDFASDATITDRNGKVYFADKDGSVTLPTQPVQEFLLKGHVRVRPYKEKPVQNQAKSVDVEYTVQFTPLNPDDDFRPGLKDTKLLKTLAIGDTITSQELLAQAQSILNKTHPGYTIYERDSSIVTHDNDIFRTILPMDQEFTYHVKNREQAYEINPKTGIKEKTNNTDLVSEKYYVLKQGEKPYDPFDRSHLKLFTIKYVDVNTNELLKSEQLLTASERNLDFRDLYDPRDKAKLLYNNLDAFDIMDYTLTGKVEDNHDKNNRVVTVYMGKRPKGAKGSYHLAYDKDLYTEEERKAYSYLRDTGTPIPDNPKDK

BJ [9] = experiment: BJ-TERT-LT-ST fibroblast viability loss – cell-based, RAS-independent, luminescence, dose response (AID 1935); type: functional; details: Homo sapiens;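 note: BJ fibroblasts immortalized with TERT plus LT and ST oncogenes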
BJ [10] = experiment: cells; type: functional, cell-based; details: Homo sapiens
[11] = NIH3T3 cell viability loss – ATP luminescence, mouse fibroblasts, counter-screen, dose response (AID 2010); type: functional, cell-based;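 note: cells exposed to compound for about 90 hours before reading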
[12] = Trypanosoma cruzi growth suppression in host cells – NIH3T3 host cells, beta-gal luminescence, confirmation (AID 2044); type: functional, cell-based;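 note: intracellular parasites grown in NIH/3T3 mouse fibroblasts as host cells; luminescent beta-galactosidase reporter signal from transgenic T. cruzi replicating inside host cells; inhibitors lower the luminescence signal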
[13] = target: T3, Heat shock factor protein 1 (Mus musculus, UniProt P38532); experiment: enhancement of HSF1-driven luciferase signal – cell-based, NIH3T3, luminescence, dose retest, confirmation (AID 435004); type: functional;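 note: stress induced by proteasome inhibitor MG132 added 30 min after compound; luciferase reporter driven by HSF1 response element in NIH3T3 cells; actives raise luminescence as potentiators of the MG132 stress response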
T3 sequence (P38532 whole entry): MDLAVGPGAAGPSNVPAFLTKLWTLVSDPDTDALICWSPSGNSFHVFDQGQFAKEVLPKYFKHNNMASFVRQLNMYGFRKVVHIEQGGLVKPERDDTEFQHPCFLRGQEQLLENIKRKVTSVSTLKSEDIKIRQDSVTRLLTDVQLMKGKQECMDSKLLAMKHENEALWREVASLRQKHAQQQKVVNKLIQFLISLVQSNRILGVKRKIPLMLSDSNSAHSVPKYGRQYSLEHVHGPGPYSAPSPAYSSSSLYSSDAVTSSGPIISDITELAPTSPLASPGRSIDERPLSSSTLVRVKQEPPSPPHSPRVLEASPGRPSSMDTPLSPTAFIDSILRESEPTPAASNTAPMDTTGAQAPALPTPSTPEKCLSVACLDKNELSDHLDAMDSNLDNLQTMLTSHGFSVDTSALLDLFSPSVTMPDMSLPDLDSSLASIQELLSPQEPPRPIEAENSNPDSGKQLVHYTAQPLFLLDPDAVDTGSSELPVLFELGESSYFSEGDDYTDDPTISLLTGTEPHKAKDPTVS

[14] = target: T4, Ubiquitin-conjugating enzyme E2 N (Homo sapiens, UniProt P61088); type: functional;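 note: Dose-response confirmation in a TR-FRET assay detecting UBC13-driven polyubiquitin chain formation, inhibition measured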
T4 sequence (P61088 whole entry): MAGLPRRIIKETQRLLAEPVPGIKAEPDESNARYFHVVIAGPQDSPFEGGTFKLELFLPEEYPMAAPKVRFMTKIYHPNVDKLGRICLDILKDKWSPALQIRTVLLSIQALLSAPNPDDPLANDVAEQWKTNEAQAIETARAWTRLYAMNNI

Cytochrome P450 2D6 = Cytochrome P450 2D6 (Homo sapiens, UniProt P10635);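 note: CYP2D6 member of a cytochrome P450 panel assay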
[15] = viability of uninfected HEp-2 cells – cell-based, HTS, cytotoxicity control for RSV inhibitor project, dose response (AID 2410); type: functional; details: human respiratory syncytial virus
Cytochrome P450 2C19 = Cytochrome P450 2C19 (Homo sapiens, UniProt P33261); experiment: Cytochrome panel assay with activity outcomes. Panel member name: p450-cyp2c19 Compounds with AC50 equal or less than 10 uM are considered active; type: functional
[16] = reduction of Shn3 3'UTR-driven luciferase in osteoblasts – cell-based, Clone20 osteoblasts, firefly luciferase, cherry-picked, dose response (AID 624132); type: functional;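 note: firefly luciferase luminescence from reporter carrying the Shn3 3'UTR in osteoblasts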
[17] = non-specific 3'UTR reporter inhibition in Clone20-Shn3RL – cell-based, Renilla luciferase, cherry-picked, counter-screen for Shn3 inhibitor project, dose response (AID 624133); type: functional
[18] = loss of viability in HepG2 cells – cell-based, CellTiter-Glo, cherry-picked, cytotoxicity control for Shn3 inhibitor project, dose response (AID 624134); type: functional
Cytochrome P450 3A4 = Cytochrome P450 3A4 (Homo sapiens, UniProt P08684);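 note: CYP3A4 tested as one member of a cytochrome P450 panel screen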
Cytochrome P450 3A4, sequence (P08684 whole entry): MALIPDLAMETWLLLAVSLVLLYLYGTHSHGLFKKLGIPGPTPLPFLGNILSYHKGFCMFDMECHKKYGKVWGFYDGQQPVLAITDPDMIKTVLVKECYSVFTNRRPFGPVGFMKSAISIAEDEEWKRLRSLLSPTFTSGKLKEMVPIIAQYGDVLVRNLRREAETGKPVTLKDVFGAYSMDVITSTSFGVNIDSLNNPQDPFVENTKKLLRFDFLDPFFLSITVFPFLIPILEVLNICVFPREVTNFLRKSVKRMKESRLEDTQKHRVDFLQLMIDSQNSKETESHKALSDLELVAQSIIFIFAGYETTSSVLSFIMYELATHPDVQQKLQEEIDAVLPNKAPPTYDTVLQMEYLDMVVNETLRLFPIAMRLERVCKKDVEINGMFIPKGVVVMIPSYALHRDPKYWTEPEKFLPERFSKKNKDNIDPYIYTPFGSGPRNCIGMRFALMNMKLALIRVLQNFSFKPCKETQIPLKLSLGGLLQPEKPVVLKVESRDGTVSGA

T1 sequence (P11940 whole entry, the tested form may be a part): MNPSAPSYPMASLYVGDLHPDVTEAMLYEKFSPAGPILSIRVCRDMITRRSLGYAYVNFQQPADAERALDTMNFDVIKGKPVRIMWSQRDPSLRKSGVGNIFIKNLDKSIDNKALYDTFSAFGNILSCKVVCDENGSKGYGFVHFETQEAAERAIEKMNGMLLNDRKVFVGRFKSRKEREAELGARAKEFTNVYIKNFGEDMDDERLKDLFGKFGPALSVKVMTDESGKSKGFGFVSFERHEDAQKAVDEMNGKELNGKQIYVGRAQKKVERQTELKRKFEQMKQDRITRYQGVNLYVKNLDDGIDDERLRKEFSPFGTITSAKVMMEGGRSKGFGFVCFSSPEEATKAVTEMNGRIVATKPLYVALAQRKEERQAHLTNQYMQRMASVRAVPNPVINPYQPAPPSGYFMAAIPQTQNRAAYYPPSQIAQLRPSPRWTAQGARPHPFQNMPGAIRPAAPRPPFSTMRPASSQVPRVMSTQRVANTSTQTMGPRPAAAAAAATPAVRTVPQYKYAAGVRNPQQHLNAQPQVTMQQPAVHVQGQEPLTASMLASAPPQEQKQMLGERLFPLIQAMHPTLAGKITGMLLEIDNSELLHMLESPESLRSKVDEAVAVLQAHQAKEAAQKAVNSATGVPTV
Cytochrome P450 2D6, sequence (P10635 whole entry): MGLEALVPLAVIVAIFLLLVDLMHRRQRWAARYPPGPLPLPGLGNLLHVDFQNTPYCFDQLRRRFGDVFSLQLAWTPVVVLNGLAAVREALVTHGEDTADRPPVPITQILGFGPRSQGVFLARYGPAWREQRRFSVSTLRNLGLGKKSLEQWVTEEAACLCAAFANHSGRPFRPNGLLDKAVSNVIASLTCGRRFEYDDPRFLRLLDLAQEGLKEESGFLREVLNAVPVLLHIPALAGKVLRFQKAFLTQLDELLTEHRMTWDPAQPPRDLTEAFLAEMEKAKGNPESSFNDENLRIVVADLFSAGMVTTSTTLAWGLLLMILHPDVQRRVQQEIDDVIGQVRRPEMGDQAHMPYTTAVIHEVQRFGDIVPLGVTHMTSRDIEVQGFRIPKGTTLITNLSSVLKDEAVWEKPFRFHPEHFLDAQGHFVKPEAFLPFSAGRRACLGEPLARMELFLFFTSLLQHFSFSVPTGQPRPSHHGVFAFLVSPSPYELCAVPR
Cytochrome P450 2C19, sequence (P33261 whole entry): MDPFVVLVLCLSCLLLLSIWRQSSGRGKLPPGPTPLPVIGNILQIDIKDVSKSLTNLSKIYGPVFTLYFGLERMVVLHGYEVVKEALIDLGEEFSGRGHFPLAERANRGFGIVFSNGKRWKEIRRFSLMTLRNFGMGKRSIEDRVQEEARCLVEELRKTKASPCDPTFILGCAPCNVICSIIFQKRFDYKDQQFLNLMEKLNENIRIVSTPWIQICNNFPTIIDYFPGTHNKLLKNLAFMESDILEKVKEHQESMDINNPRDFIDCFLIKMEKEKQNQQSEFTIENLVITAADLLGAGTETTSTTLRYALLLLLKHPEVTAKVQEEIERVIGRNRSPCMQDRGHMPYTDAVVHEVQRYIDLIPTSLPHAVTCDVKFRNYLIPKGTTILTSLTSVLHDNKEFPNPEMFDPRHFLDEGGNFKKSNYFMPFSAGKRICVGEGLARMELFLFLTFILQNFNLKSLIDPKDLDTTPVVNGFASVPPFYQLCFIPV

## Cc1nc2[nH]c(=S)[nH]c(=O)c2nc1C
[1]
  IC50: > 66 µM (inactive)
[2]
  IC50: > 66 µM (inactive)

## COc1ccc(-c2c/c(=N\c3nc(-c4ccccc4)c(C)s3)c3ccccc3o2)cc1O
[3]
  EC50: 5.8 µM (active)
[4]
  EC50: 7.32 µM (active)
[5]
  EC50: 4.5 µM (active)
Streptococcus
  EC50: > 150 µM (not active)
Vero
  CC50: 3.22 µM (active)
[6]
  EC50: 1.9 µM (active)
BJ [7]
  EC50: 1.71 µM (active)
[8]
  EC50: 5.76 µM (inconclusive)
Streptokinase A
  EC50: 15.5 µM (active)
BJ [9]
  EC50: 1.82 µM (active)
BJ [10]
  EC50: 3.22 µM (active)

## Cc1ccc2c(c1)c1nnc(S)nc1n2CCc1ccccc1
[1]
  IC50: > 66 µM (inactive)
[11]
  EC50: > 60 µM (not active)
[12]
  EC50: 2.1 µM (active)
[2]
  IC50: > 66 µM (inactive)

## Cc1cc(C)cc(Oc2ccccc2/C=C\C(=O)O)c1
[13]
  EC50: > 260 µM (inactive)

## COc1cc(OCc2ccccc2)c(C(=O)/C=C/c2ccc3c(c2)OCO3)c(OC)c1OC
Vero
  CC50: > 25 µM (active)

## COc1ccc(Cl)cc1C=CC=NNS(=O)(=O)c1ccc(C)cc1
Vero
  CC50: > 25 µM (active)

## CC(C)(C)c1ccc(C(=O)N/N=C/c2ccccn2)cc1
[5]
  EC50: 9.57 µM (active)
Streptococcus
  EC50: 29.8 µM (active)
[14]
  IC50: > 20 µM (inactive)
Streptokinase A
  EC50: > 150 µM (not active)

## Cc1cccc(N(C(=O)c2snc(C(N)=O)c2N)C(C(=O)NC2CCCC2)c2ccc(C)o2)c1 (configuration not stated)
[14]
  IC50: > 20 µM (inactive)

## COC(=O)c1sc(N)c(C(=O)OC)c1CSc1nc2sc3c(c2c(=O)n1C)CCC3
[13]
  EC50: > 260 µM (inactive)

## CSc1nc(C)cc(Nc2ccc(O)c(CN3CCCCC3)c2)n1
Cytochrome P450 2D6
  AC50: 3.16 µM (inconclusive)

## CN(C)CCCN(C(=O)c1ccco1)c1nc2ccc(Cl)cc2s1
Vero
  CC50: > 25 µM (active)

## O=C(Nc1ccc2c(c1)CCCN2C(=O)c1ccccc1)c1ccccc1Br
Vero
  CC50: > 25 µM (active)
[15]
  CC50: 10.5 µM (active)

## Cc1cc(C=O)c(C)n1-c1ccc(NC2CCCC2)c([N+](=O)[O-])c1
Cytochrome P450 2D6
  AC50: 8.91 µM (inconclusive)

## O=c1c2ccccc2nnn1CSc1ccc2c(c1)OCCO2
Cytochrome P450 2D6
  AC50: 28.2 µM (inconclusive)

## CCCCCCC1NC(C(=O)O)CS1 (configuration not stated)
[1]
  IC50: > 66 µM (inactive)
[2]
  IC50: > 66 µM (inactive)

## O=C(N/N=C/c1cc(Br)c(Br)o1)c1cccnc1
[1]
  IC50: > 66 µM (inactive)
[2]
  IC50: 44.3 µM (inactive)

## C=CCN(C(=O)CCC(=O)Nc1cc(C)on1)C(C(=O)NC(C)(C)C)c1cccc(OC)c1OC (configuration not stated)
[13]
  EC50: > 260 µM (inactive)

## Cc1ccc(S(=O)(=O)N[C@H]2COC(=O)C/C=C\[C@@H](C)[C@H](NS(=O)(=O)c3ccc(C)cc3)COC(=O)[C@H](C)NC(=O)C/C=C\[C@H]2C)cc1
Cytochrome P450 2D6
  AC50: 3.98 µM (inconclusive)
Cytochrome P450 2C19
  AC50: inconclusive

## CCOC(=O)N1CCN(C(=O)c2ccc3c(c2)N(Cc2ccccc2)CCS3)CC1
[14]
  IC50: > 20 µM (inactive)

## COc1cccc(Cn2c(=O)cnc3cnc(OCc4ccccc4)nc32)c1
Cytochrome P450 2D6
  AC50: 39.8 µM (inconclusive)

## CCOC(=O)c1c(C)sc2c1N(C(=O)CN(CC)CC)c1ccccc1S2
[13]
  EC50: > 260 µM (inactive)

## Cc1nnc(O)c2c(NC(=O)CSc3c(Cl)cccc3Cl)oc(C)c12
[1]
  IC50: > 66 µM (inactive)
[2]
  IC50: > 66 µM (inactive)

## Cn1c(Cn2nnc3ccccc32)nnc1SCC(=O)c1ccccc1F
[13]
  EC50: > 260 µM (inactive)

## Cc1cccn2c(=O)c3cc(C(=O)NC4CCCC4)c(=N)n(Cc4ccc(F)cc4)c3nc12
Vero
  CC50: > 25 µM (active)

## COc1ccc(C(=S)N2CCN(c3ccccc3Cl)CC2)cc1OC
[1]
  IC50: > 66 µM (inactive)
[2]
  IC50: > 66 µM (inactive)

## CSc1ccccc1-n1nnnc1SCC(=O)NCc1cccs1
[13]
  EC50: > 260 µM (inactive)

## Cc1ccc(C(=O)Nc2nnc(C3CCCCC3)s2)o1
[13]
  EC50: 44.6 µM (active)

## Cc1ccc(Cc2cnc(NC(=O)c3cccs3)s2)cc1
Cytochrome P450 2D6
  AC50: 15.8 µM (inconclusive)

## Cn1c(/C=C/c2ccc(Cl)cc2Cl)c([N+](=O)[O-])c(=O)n(C)c1=O
Vero
  CC50: 20.5 µM (active)
[16]
  AC50: 6.87 µM (active)
[17]
  AC50: 8.75 µM (active)
[18]
  AC50: 64.4 µM (active)
[15]
  CC50: 37.5 µM (active)

## N#Cc1sc2nc(N3CCCCC3)c3c(c2c1N)CCCC3
Vero
  CC50: > 25 µM (active)

## Cc1cnc(CNc2nc(-c3ccccc3Cl)nc3ccccc23)cn1
Cytochrome P450 2D6
  AC50: 25.1 µM (inconclusive)
Cytochrome P450 3A4
  AC50: 7.94 µM (inconclusive)

## CSc1nccc(Nc2ccccc2)c1C#N
[14]
  IC50: > 20 µM (inactive)

## CC1=CC(=O)C=C(C)C1=NOC(=O)/C=C\c1ccccc1
[13]
  EC50: > 260 µM (inactive)

## c1ccc(Nc2ncncc2-c2ccoc2)cc1
Cytochrome P450 2D6
  AC50: 25.1 µM (inconclusive)
Cytochrome P450 2C19; read-out: AC50
  AC50: 15.8 µM (inconclusive)

## O=[N+]([O-])c1cccc(-c2ccc3nnc(SCc4ccccn4)n3n2)c1
[13]
  EC50: > 260 µM (inactive)

## N#C/C(C[n+]1cn(NC(=O)Nc2ccccc2)cn1)=N/O
[13]
  EC50: > 260 µM (inactive)

## C=CCOC(=O)/C(=C\c1cccc2ccccc12)NC(=O)c1ccccc1
Cytochrome P450 2D6
  AC50: 22.4 µM (inconclusive)

## COc1cc(NC(=O)C2=C(N3CCOCC3)/C(=C\c3ccc(Br)cc3)CC2)cc(OC)c1OC
[13]
  EC50: > 260 µM (inactive)

## COCCCN(CC(=O)O)S(=O)(=O)c1cccc(Cl)c1
[13]
  EC50: > 260 µM (inactive)

## CC1=NCCc2c1[nH]c1cc(O)ccc21
Cytochrome P450 2D6
  AC50: 7.94 µM (inconclusive)

## O=C(CCCN1C(=O)CCC1=O)Nc1ccccc1F
[1]
  IC50: > 66 µM (inactive)
[2]
  IC50: > 66 µM (inactive)

## CCN1CCN(S(=O)(=O)c2ccc(Cl)nc2)CC1
Cytochrome P450 2D6
  AC50: 12.6 µM (inconclusive)

Source: ChEMBL document CHEMBL1201862, “PubChem BioAssay data set” (2004)
